{"source": "ChEMBL document CHEMBL5715954", "about": "“Silencing c-Myc translation as a therapeutic strategy through targeting PI3Kδ and CK1ε in hematological malignancies” (Blood, 2017)", "key": {"[1]": {"molecular_target": "Casein kinase I isoform epsilon (Homo sapiens, UniProt P49674)", "sequence (P49674 whole entry, looked up, canonical isoform)": "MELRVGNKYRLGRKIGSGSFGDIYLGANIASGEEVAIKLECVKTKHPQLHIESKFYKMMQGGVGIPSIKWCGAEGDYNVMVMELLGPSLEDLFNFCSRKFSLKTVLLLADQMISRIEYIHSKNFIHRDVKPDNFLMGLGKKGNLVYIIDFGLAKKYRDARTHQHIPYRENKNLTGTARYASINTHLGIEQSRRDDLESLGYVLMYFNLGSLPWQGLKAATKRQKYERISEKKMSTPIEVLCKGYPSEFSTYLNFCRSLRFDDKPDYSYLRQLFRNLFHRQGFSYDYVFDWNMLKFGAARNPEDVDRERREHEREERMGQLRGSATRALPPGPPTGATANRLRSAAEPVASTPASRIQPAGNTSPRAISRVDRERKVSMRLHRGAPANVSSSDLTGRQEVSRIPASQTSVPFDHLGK", "experiment": "Inhibition of CK1epsilon in human LY7 cells assessed as reduction in CK1epsilon autophosphorylation at 25 uM preincubated for 1 hr followed by addition of PP2A inhibitor calyculin A and measured after 15 to 60 mins by Western blot analysis", "assay_type": "cell-based", "conditions": "time lower 75.0 min, time upper […]"}, "OCI-Ly10 [2]": {"test_system": "OCI-Ly10", "experiment": "Induction of apoptosis in human LY10 cells assessed as increase in cleaved-PARP expression at 3 uM measured after 24 hrs in presence of bortezomib by Western blot analysis", "assay_type": "functional, cell-based"}, "OCI-Ly10 [3]": {"test_system": "OCI-Ly10", "experiment": "Induction of apoptosis in human LY10 cells assessed as increase in caspase-3/7 activation at 1 to 3 uM measured after 24 hrs in presence of bortezomib", "assay_type": "functional, cell-based", "conditions": "dose 1-3 µM"}, "[4]": {"molecular_target": "Myc proto-oncogene protein (Homo sapiens) (UniProt P01106)", "sequence (P01106 whole entry)": "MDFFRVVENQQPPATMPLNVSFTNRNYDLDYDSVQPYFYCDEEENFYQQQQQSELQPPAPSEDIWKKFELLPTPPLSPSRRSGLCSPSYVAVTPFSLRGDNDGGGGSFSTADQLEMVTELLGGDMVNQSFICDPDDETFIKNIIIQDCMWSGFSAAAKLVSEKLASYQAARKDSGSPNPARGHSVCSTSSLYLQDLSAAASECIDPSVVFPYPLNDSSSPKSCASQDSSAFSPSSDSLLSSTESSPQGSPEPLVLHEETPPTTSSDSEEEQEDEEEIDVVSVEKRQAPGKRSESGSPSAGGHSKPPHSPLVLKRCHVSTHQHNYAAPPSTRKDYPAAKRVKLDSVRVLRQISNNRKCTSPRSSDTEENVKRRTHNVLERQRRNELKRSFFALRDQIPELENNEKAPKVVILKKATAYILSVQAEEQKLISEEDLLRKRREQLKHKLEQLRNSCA", "experiment": "Inhibition of c-Myc in human LY7 cells assessed as reduction in E2F1 expression at 3 uM incubated for 24 hrs in presence of bortezomib by Western blot analysis", "assay_type": "cell-based"}, "[5]": {"molecular_target": "Myc proto-oncogene protein (Homo sapiens) (UniProt P01106)", "experiment": "Inhibition of c-Myc in human LY7 cells assessed as reduction in eIF4B expression at 3 uM incubated for 24 hrs in presence of bortezomib by Western blot analysis", "assay_type": "cell-based"}, "LY7 [6]": {"test_system": "LY7", "experiment": "Induction of apoptosis in human LY7 cells assessed as increase in cleaved-PARP expression at 3 uM measured after 24 hrs in presence of bortezomib by Western blot analysis", "assay_type": "functional, cell-based"}, "mTORC1 (Homo sapiens) [7]": {"molecular_target": "T1, mTORC1 (Homo sapiens) (UniProt P42345+Q8N122+Q9BVC4)", "T1 sequence (Q8N122 whole entry, looked up, other chains not shown)": "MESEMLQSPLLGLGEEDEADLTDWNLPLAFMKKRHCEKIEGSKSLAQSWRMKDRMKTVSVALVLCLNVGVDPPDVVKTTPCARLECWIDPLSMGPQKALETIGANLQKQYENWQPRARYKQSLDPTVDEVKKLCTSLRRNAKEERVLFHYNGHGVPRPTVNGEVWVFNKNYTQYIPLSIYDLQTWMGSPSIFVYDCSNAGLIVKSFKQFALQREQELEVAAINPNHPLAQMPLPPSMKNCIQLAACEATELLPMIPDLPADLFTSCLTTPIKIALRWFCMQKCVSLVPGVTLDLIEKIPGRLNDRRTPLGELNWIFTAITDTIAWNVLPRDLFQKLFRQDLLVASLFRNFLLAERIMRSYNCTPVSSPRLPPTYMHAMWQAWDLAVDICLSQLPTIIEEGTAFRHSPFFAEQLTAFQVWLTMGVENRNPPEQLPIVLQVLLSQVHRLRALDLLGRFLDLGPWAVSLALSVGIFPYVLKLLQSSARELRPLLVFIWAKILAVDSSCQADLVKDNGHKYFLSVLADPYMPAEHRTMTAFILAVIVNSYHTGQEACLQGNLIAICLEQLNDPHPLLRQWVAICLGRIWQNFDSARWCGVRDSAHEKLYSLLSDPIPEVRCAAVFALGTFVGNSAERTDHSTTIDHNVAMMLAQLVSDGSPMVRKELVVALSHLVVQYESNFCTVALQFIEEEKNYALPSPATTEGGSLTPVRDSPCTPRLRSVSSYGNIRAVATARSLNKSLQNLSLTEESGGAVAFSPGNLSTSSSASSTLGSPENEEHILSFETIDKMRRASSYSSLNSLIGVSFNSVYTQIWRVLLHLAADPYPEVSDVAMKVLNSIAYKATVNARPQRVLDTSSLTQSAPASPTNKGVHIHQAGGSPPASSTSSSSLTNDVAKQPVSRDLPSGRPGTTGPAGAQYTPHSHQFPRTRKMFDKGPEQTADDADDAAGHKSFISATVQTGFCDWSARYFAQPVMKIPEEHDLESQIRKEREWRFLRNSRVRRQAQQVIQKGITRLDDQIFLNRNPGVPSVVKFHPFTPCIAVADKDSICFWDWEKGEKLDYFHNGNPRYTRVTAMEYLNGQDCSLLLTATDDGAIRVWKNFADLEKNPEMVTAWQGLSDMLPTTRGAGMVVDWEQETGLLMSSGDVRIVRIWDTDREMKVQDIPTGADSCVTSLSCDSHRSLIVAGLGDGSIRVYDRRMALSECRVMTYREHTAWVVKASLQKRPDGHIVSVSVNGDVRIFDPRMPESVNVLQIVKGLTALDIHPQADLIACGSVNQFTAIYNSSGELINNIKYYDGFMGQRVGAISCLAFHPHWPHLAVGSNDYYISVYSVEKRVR", "T1 sequence (Q9BVC4 whole entry, looked up, other chains not shown)": "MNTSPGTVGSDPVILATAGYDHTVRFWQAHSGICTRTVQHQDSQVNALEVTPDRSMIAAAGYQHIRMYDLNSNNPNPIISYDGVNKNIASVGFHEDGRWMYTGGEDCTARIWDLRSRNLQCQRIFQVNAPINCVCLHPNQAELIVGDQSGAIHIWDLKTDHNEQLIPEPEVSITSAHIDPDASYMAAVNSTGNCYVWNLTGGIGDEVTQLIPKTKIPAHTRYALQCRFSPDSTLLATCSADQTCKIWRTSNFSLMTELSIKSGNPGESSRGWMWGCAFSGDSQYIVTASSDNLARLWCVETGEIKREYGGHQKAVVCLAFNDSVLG", "experiment": "Inhibition of mTORC1 in human CLL cells assessed as reduction in 4E-BP1 phosphorylation at 5 uM measured after 24 hrs in presence of bortezomib by Western blot analysis", "assay_type": "cell-based", "conditions": "CLL cell"}, "mTORC1 (Homo sapiens) [8]": {"molecular_target": "T1, mTORC1 (Homo sapiens)", "experiment": "Inhibition of mTORC1 in human PF-382 cells assessed as reduction in 4E-BP1 phosphorylation at 5 uM measured after 24 hrs in presence of bortezomib by Western blot analysis", "assay_type": "cell-based"}, "[9]": {"molecular_target": "Myc proto-oncogene protein (Homo sapiens) (UniProt P01106)", "experiment": "Inhibition of c-Myc in human LY10 cells assessed as reduction in E2F1 expression at 3 uM incubated for 24 hrs in presence of carfilzomib by Western blot analysis", "assay_type": "cell-based"}, "[10]": {"molecular_target": "T2, Phosphatidylinositol 4,5-bisphosphate 3-kinase catalytic subunit delta isoform (Homo sapiens) (UniProt O00329)", "T2 sequence (whole entry)": "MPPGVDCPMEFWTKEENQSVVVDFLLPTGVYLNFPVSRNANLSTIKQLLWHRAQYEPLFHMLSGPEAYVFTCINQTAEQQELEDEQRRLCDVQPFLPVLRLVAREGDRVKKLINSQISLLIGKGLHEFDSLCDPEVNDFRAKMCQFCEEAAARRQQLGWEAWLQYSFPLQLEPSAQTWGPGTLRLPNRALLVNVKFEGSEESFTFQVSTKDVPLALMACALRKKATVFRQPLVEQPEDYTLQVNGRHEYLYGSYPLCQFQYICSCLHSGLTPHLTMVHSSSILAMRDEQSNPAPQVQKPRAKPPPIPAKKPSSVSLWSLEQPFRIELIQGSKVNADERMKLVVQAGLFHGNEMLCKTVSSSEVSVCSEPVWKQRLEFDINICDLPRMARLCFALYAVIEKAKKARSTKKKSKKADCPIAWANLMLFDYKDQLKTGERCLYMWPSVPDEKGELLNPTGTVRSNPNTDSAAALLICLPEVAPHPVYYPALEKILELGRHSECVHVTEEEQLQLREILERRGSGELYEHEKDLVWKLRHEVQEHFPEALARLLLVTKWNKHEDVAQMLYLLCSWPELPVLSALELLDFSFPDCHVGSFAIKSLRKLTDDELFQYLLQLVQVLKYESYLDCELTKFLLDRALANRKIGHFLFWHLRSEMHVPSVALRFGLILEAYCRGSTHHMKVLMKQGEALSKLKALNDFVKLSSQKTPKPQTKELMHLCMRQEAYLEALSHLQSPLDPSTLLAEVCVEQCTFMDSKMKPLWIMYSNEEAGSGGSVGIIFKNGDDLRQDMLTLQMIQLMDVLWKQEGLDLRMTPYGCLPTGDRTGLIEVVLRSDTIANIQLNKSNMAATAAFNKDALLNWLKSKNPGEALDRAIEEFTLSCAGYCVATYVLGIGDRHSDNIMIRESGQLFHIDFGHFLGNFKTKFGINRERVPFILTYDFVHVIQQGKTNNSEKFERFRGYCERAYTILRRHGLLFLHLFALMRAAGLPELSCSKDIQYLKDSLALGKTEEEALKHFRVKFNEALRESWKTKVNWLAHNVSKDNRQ", "experiment": "Inhibition of PI3Kdelta in human HL-60 cells assessed as reduction in AKT phosphorylation at S473 residue measured after 4 hrs", "assay_type": "cell-based", "conditions": "dose 10-10000 nM"}, "mTORC1 (Homo sapiens) [11]": {"molecular_target": "T1, mTORC1 (Homo sapiens)", "experiment": "Inhibition of mTORC1 in human LY7 cells assessed as reduction in 4E-BP1 phosphorylation at 3 uM measured after 24 hrs in presence of carfilzomib by Western blot analysis", "assay_type": "cell-based"}, "[12]": {"molecular_target": "T2, Phosphatidylinositol 4,5-bisphosphate 3-kinase catalytic subunit delta isoform (Homo sapiens)", "experiment": "Inhibition of PI3Kdelta in human MOLT-4 cells assessed as reduction in AKT phosphorylation at S473 residue measured after 4 hrs", "assay_type": "cell-based", "conditions": "dose 10-10000 nM"}, "[13]": {"molecular_target": "T2, Phosphatidylinositol 4,5-bisphosphate 3-kinase catalytic subunit delta isoform (Homo sapiens)", "experiment": "Inhibition of PI3Kdelta in human MOLT-4 cells assessed as reduction in AKT phosphorylation at S473 residue at 1 uM measured after 4 hrs relative to control", "assay_type": "cell-based"}, "LY7 [14]": {"test_system": "LY7", "experiment": "Inhibition of PI3Kdelta/CK1epsilon in human LY7 cells assessed as reduction in c-Myc expression at 25 uM incubated for 24 hrs by Western blot analysis", "assay_type": "cell-based"}, "[15]": {"molecular_target": "T2, Phosphatidylinositol 4,5-bisphosphate 3-kinase catalytic subunit delta isoform (Homo sapiens)", "experiment": "Inhibition of PI3Kdelta in human Jurkat cells assessed as reduction in AKT phosphorylation at S473 residue at 1 uM measured after 4 hrs relative to control", "assay_type": "cell-based"}, "mTORC1 (Homo sapiens) [16]": {"molecular_target": "T1, mTORC1 (Homo sapiens)", "experiment": "Inhibition of mTORC1 in human SLL cells assessed as reduction in c-Myc expression at 5 uM measured after 24 hrs in presence of carfilzomib by Western blot analysis", "assay_type": "cell-based"}, "OCI-Ly7": {"test_system": "OCI-Ly7", "experiment": "Cytotoxicity against human OCILY7 cells transfected with c-Myc-expressing plasmid (M+) assessed as reduction in cell viability at 7.5 to 25 uM incubated for 24 hrs by cell-titer glo assay", "assay_type": "functional, cell-based", "conditions": "dose 7.5-25 µM"}, "[17]": {"molecular_target": "Myc proto-oncogene protein (Homo sapiens) (UniProt P01106)", "experiment": "Inhibition of c-Myc in human LY10 cells assessed as reduction in eIF4B expression at 3 uM incubated for 24 hrs in presence of carfilzomib by Western blot analysis", "assay_type": "cell-based"}, "mTORC1 (Homo sapiens) [18]": {"molecular_target": "T1, mTORC1 (Homo sapiens)", "experiment": "Inhibition of mTORC1 in human LY7 cells assessed as reduction in c-Myc mRNA expression at 3 uM measured after 24 hrs in presence of carfilzomib", "assay_type": "cell-based"}, "[19]": {"molecular_target": "T2, Phosphatidylinositol 4,5-bisphosphate 3-kinase catalytic subunit delta isoform (Homo sapiens)", "experiment": "Inhibition of PI3Kdelta in human Jurkat cells assessed as reduction in AKT phosphorylation at S473 residue measured after 4 hrs", "assay_type": "cell-based", "conditions": "dose 10-10000 nM"}, "mTORC1 (Homo sapiens) [20]": {"molecular_target": "T1, mTORC1 (Homo sapiens)", "experiment": "Inhibition of mTORC1 in human NCI-H929 cells assessed as reduction in c-Myc expression at 5 uM measured after 24 hrs in presence of carfilzomib by Western blot analysis", "assay_type": "cell-based"}, "mTORC1 (Homo sapiens) [21]": {"molecular_target": "T1, mTORC1 (Homo sapiens)", "experiment": "Inhibition of mTORC1 in human OCILY7 cells transfected with empty vector assessed as reduction in endogenous c-Myc expression at 3 to 5 uM incubated for 24 hrs in presence of carfilzomib by Western blot analysis", "assay_type": "cell-based", "conditions": "dose 3-5 µM"}}, "note": "Active and inactive are the calls of the source. No cut-off for these calls is given here."}
{"smiles": "CC[C@H](Nc1ncnc2[nH]cnc12)c1nc2cccc(F)c2c(=O)n1-c1ccccc1", "values": [{"measurement": "inhibition", "setting": "[1]", "value": "inactive"}, {"measurement": "Activity", "setting": "OCI-Ly10 [2]", "value": "Active"}, {"measurement": "Activity", "setting": "OCI-Ly10 [3]", "value": "Active"}, {"measurement": "inhibition", "setting": "[4]", "value": "inactive"}, {"measurement": "inhibition", "setting": "[5]", "value": "inactive"}, {"measurement": "Activity", "setting": "LY7 [6]", "value": "Active"}, {"measurement": "inhibition", "setting": "mTORC1 (Homo sapiens) [7]", "value": "inactive"}, {"measurement": "inhibition", "setting": "mTORC1 (Homo sapiens) [8]", "value": "inactive"}]}
{"smiles": "CC(C)Oc1ccc(-c2nn([C@@H](C)c3oc4ccc(F)cc4c(=O)c3-c3cccc(F)c3)c3ncnc(N)c23)cc1F", "note": "[UMBRALISIB]", "values": [{"measurement": "inhibition", "setting": "[9]", "value": "Active"}, {"measurement": "inhibition", "setting": "[10]", "value": "Dose-Dependent Effect"}, {"measurement": "inhibition", "setting": "mTORC1 (Homo sapiens) [11]", "value": "Active"}, {"measurement": "inhibition", "setting": "[12]", "value": "Dose-Dependent Effect"}, {"measurement": "inhibition", "setting": "[13]", "value": 43, "unit": "%"}, {"measurement": "inhibition", "setting": "LY7 [14]", "value": "Active"}, {"measurement": "inhibition", "setting": "[15]", "value": 43, "unit": "%"}, {"measurement": "inhibition", "setting": "mTORC1 (Homo sapiens) [16]", "value": "Active"}, {"measurement": "Activity", "setting": "OCI-Ly7", "value": "inactive"}, {"measurement": "inhibition", "setting": "[17]", "value": "Active"}, {"measurement": "inhibition", "setting": "mTORC1 (Homo sapiens) [18]", "value": "inactive"}, {"measurement": "inhibition", "setting": "[19]", "value": "Dose-Dependent Effect"}, {"measurement": "inhibition", "setting": "mTORC1 (Homo sapiens) [20]", "value": "Active"}, {"measurement": "inhibition", "setting": "mTORC1 (Homo sapiens) [21]", "value": "Active"}]}
